Publication PMC4557792 (ACS chemical biology, 2013)

Legend:
VMAT2-HEK cells = experiment: Fluorescence microscopy of FFN206 accumulation in VMAT2-HEK cells; format: cell-based, human
VMAT2 [1] = target: VMAT2 (Rattus norvegicus, UniProt Q01827); format: cell-based; conditions: for inhibitory effect on VMAT2 transport (FFN206 uptake) in screen: tested compound 10 µM, FFN206 1 µM, 30 min preincubation, 60 min uptake
VMAT = conditions: cited from earlier work; for IC50: read-out: IC50, inhibiting [3H]DA uptake, rat brain vesicles
VMAT2 [2] = conditions: endogenous substrate; cited from earlier work

Sequence of VMAT2 (Rattus norvegicus, UniProt Q01827) (Q01827 whole entry): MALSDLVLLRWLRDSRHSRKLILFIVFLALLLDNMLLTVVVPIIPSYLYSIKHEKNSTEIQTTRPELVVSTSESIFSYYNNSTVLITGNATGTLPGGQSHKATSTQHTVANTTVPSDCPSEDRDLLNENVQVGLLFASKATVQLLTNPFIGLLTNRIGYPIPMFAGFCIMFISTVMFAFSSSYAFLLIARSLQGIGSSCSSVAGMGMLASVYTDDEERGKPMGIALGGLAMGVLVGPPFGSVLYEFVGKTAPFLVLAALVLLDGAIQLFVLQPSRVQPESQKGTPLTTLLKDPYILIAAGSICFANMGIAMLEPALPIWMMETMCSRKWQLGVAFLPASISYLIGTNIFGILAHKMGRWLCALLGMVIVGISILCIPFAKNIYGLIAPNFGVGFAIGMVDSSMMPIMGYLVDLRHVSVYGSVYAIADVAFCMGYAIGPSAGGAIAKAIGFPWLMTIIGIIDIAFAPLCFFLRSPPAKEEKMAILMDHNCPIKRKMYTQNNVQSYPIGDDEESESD

CCN(CC)CCCC(C)Nc1ccnc2cc(Cl)ccc12 (stereo not shown) [Chloroquine, chloroquine]
effect on punctate FFN206 fluorescence signal (VMAT2-HEK cells; 100 µM, within 3 minutes of treatment, cells pre-loaded with FFN206 5 µM): completely abolished | inhibitory effect on VMAT2 transport (FFN206 uptake) in screen (VMAT2 [1]): reduces VMAT2-dependent uptake

C[C@@H](N)Cc1ccccc1 [R(−)-amphetamine]
IC50 (VMAT): 29 µM

C[C@H](N)Cc1ccccc1 [S(+)-amphetamine]
IC50 (VMAT): 3.27 µM

COc1cc2c(cc1OC)C1CC(=O)C(CC(C)C)CN1CC2 (stereo not shown) [TBZ, tetrabenazine]
FFN206 uptake in VMAT2-HEK cells pre-treated with inhibitor (VMAT2-HEK cells; inhibitor 2 µM, 1 hr preincubation then coincubation, FFN206 5 µM, 2 hr): Negligible uptake of FFN206

c1ccc(CN2CCNCC2)cc1 [benzylpiperazine]
inhibitory effect on VMAT2 transport (FFN206 uptake) in screen (VMAT2 [1]): no or weak inhibitory effects | activity in inhibiting vesicular uptake of [3H]DA by VMAT (VMAT): inactive

COC(=O)[C@H]1[C@@H](OC(=O)c2ccccc2)C[C@@H]2CC[C@H]1N2C [cocaine]
inhibition of FFN206 uptake (negative control) (VMAT2 [1]; 96-well fluorometric assay, VMAT2-HEK cells): no detectable inhibition | inhibitory effect on VMAT2 transport (FFN206 uptake) in screen (VMAT2 [1]): no or weak inhibitory effects | activity in inhibiting vesicular uptake of [3H]DA by VMAT (VMAT): inactive

CCN(CC)C(C)C(=O)c1ccccc1 (stereo not shown) [diethylpropion]
inhibitory effect on VMAT2 transport (FFN206 uptake) in screen (VMAT2 [1]): no or weak inhibitory effects | activity in inhibiting vesicular uptake of [3H]DA by VMAT (VMAT): inactive

NCCc1ccc(O)c(O)c1 [dopamine]
IC50 (VMAT2 [2]): 0.92 ± 0.05 µM | Km (VMAT2 [2]): 0.82 to 0.95 µM

CC(C)(N)Cc1ccccc1 [phentermine]
inhibitory effect on VMAT2 transport (FFN206 uptake) in screen (VMAT2 [1]): no or weak inhibitory effects | activity in inhibiting vesicular uptake of [3H]DA by VMAT (VMAT): inactive
